Measured values as given in US20260335332A1, “STABLE MONOHYDRATE FORM OF AVIBACTAM SODIUM SALT AND PREPARATION METHOD THEREFOR” (KYONGBO PHARM. CO., LTD., priority 2022, published 2026).
Like-named read-outs stand apart in the source and are kept apart here.

How the values were obtained:
[1] = Comparative accelerated stability test on purity/appearance changes (40° C., 75% relative humidity), HPLC; format: physicochemical; settings: 6 weeks
Description: The novel monohydrate form “a” of avibactam sodium salt prepared in Example 1, the monohydrate form “A” and the anhydrous form “B” were each packaged in glass vials and stored at 40° C. and 75% relative humidity for 6 weeks and the purity changes thereof were measured by HPLC at weekly intervals.

DSC pattern measurement = format: physicochemical; settings: 3 to 5 mg, 25 to 500° C. at 10 K/min
Description: The DSC pattern was measured while heating 3 to 5 mg of the novel monohydrate form “a” of avibactam sodium salt prepared in Example 1 from 25 to 500° C. at a rate of 10 K/min. As a result, the exothermic decomposition peak was confirmed at 227.3° C. […] It was confirmed therefrom that it had different physicochemical properties from the monohydrate form “A”, and the results are shown in FIG. 6.

[2] = Accelerated stability test on moisture content changes (40° C., 75% relative humidity), Karl-Fischer; format: physicochemical; settings: glass vial, 6 weeks, Karl-Fischer moisture meter
Description: The novel monohydrate form “a” of avibactam sodium salt prepared in Example 1 was packaged in a glass vial and stored at 40° C. and 75% relative humidity for 6 weeks and the change in moisture content thereof was measured by a Karl-Fischer moisture meter at weekly intervals for about 6 weeks.

TGA pattern measurement = format: physicochemical; settings: 3 to 5 mg, 30 to 500° C. at 10 K/min; theoretical water content of the monohydrate 5.90%
Description: The TGA pattern was measured while heating 3 to 5 mg of the novel monohydrate form “a” of avibactam sodium salt prepared in Example 1 from 30 to 500° C. at a rate of 10 K/min. […] In addition, decomposition exotherm accompanied by weight loss at 200 to 220° C. was confirmed and the results are shown in FIG. 5.

[3] = described in WO2011/042560 A1; cited from earlier work
[4] = described in WO2011/042560 A1; cited from earlier work; remark: listed apart in the source

Row | SMILES | pharmaceutical stability compared with anhydrous form “B” ([1]; accelerated stability, vs anhydrous form “B”) | stability (purity changes) compared with monohydrate form “A” ([1]; glass vials, HPLC at weekly intervals, vs monohydrate form “A”) | exothermic decomposition peak (DSC) (DSC pattern measurement) | maintenance of monohydrate form (change in moisture content) [2] | weight loss at 100 to 140° C. (TGA) (TGA pattern measurement) | exothermic decomposition peak (DSC) [3] | stability during long storage and at higher temperature [4]
1 | NC(=O)[C@@H]1CC[C@@H]2CN1C(=O)N2OS(=O)(=O)O [form “a”, (1R,2S,5R)-7-oxo-6-sulfooxy-1,6-diazabicyclo[3.2.1]octane-2-carboxamide sodium] | pharmaceutically more stable than the form “B” | a more stable form than the monohydrate form “A” | 227.3 °C | maintained the monohydrate form thereof | 5.57% | 238.9 °C | –
2 | NC(=O)[C@@H]1CC[C@@H]2CN1C(=O)N2OS(=O)(=O)O [form “E”, (1R,2S,5R)-7-oxo-6-sulfooxy-1,6-diazabicyclo[3.2.1]octane-2-carboxamide sodium] | – | – | – | – | – | – | tends to lose water and hydrolyze during long storage and at higher temperature
